The record followed here is patent US12187723B2 (BRISTOL-MYERS SQUIBB COMPANY, priority 2019, dated 2025).

In general, pIC50 refers to the negative decadic logarithm of the IC50, by convention in mol/L. Read a high pIC50 as a low IC50.

SMILES strings stand for the structures. pIC50: −log10 of the molar value.

For the test, the target named is T1, human TLR7 (Homo sapiens, UniProt Q9NYK1).
T1 construct: host or cells: HEK-Blue cells
T1 sequence (Q9NYK1 27-1049): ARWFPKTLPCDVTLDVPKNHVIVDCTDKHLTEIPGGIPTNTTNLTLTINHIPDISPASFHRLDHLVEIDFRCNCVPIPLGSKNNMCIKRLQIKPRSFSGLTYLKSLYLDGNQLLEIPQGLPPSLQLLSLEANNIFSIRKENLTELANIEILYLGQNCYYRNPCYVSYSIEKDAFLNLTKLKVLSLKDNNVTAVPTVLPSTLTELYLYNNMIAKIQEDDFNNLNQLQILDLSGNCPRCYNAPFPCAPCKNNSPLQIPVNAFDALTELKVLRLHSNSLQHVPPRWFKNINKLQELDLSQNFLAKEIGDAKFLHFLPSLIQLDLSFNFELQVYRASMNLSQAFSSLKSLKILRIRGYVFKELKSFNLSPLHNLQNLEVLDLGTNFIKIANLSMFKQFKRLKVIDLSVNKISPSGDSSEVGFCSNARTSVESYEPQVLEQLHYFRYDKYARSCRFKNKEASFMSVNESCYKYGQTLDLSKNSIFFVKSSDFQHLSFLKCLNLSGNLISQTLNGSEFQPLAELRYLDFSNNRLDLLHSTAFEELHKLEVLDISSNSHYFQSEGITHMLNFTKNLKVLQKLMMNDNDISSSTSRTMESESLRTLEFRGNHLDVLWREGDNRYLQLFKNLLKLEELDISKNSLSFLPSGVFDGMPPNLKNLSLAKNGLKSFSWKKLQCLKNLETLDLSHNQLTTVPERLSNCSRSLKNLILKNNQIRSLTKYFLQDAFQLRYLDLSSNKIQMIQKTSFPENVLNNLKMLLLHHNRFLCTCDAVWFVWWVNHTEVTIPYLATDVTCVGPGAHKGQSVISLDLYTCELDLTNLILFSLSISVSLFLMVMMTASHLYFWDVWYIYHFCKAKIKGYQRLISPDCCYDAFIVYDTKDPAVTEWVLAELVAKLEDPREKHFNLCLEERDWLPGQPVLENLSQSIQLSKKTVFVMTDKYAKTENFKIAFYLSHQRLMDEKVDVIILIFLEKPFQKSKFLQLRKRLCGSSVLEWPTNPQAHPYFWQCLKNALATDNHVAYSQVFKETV
In words: TLR7 inhibition reporter assay (HEK-Blue SEAP). As to conditions: HEK-Blue cells overexpressing human TLR7, gardiquimod 7.5 μM, 22 hour incubation. Format: cell-based. In short, it runs like this: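 SEAP readout via HEK-Blue Detection medium after 22 h at 37 °C, 5% CO2 defines inhibition, normalized between agonist-plus-DMSO wells and a reference inhibitor. Compound dose range 0.05 nM–50 μM; TLR7 cells at 15,000/well (gardiquimod), TLR8 at 20,000/well (R848).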
On the technique in general: A reporter such as luciferase makes a cellular process visible.
`Cc1cc2c(cc1-c1cc(C)c3ncnn3c1)[nH]c(=O)n2[C@@H]1CCCN(C2COC2)C1` [Example 18, (R)-6-methyl-5-(8-methyl-[1,2,4]triazolo[1,5-a]pyridin-6-yl)-1-(1-(oxetan-3-yl)piperidin-3-yl)-1,3-dihydro-2H-benzo[d]imidazol-2-one] gave a pIC50 of 6.39.

The compound `COc1cc(-c2cc3[nH]c(=O)n(C4CCC(N5CCC(F)(F)CC5)CC4)c3cc2C(C)C)cn2ncnc12` (single isomer, unassigned) [Example 246, 1-(4-(4,4-difluoropiperidin-1-yl)cyclohexyl)-6-isopropyl-5-(8-methoxy-[1,2,4]triazolo[1,5-a]pyridin-6-yl)-1,3-dihydro-2H-benzo[d]imidazol-2-one] had a pIC50 of 8.55.

In the case of `COc1cc(-c2cc3[nH]c(=O)n(C4CCC(N5CCC(S(C)(=O)=O)C5)CC4)c3cc2C(C)C)cn2ncnc12` (single isomer, unassigned) [Example 289, 6-isopropyl-5-(8-methoxy-[1,2,4]triazolo[1,5-a]pyridin-6-yl)-1-(4-(3-(methylsulfonyl)pyrrolidin-1-yl)cyclohexyl)-1,3-dihydro-2H-benzo[d]imidazol-2-one], the negative logarithm of the IC50 (pIC50) is 7.92.

Turning to `COc1cc(-c2cc3[nH]c(=O)n(C4CCC(N5CCSCC5)CC4)c3cc2C(C)C)cn2ncnc12` (centres unmarked) [Example 251, 6-isopropyl-5-(8-methoxy-[1,2,4]triazolo[1,5-a]pyridin-6-yl)-1-(4-thiomorpholinocyclohexyl)-1,3-dihydro-2H-benzo[d]imidazol-2-one], the pIC50 was 8.45.

On to `CCN(CC)[C@H]1CC[C@@H](n2c(=O)[nH]c3cc(-c4cc(C)c5ncnn5c4)c(C)cc32)CC1` [Example 20, 1-((1s,4s)-4-(diethylamino)cyclohexyl)-6-methyl-5-(8-methyl-[1,2,4]triazolo[1,5-a]pyridin-6-yl)-1,3-dihydro-2H-benzo[d]imidazol-2-one], for which the negative-log IC50 (pIC50) was 8.05.

`Cc1c(-c2cc3[nH]c(=O)n([C@@H]4CCCNC4)c3cc2C(C)C)cn2ncnc2c1C` [119 FC, (R)-5-(7,8-dimethyl-[1,2,4]triazolo[1,5-a]pyridin-6-yl)-6-isopropyl-1-(piperidin-3-yl)-1,3-dihydro-2H-benzo[d]imidazol-2-one]: the pIC50 is 8.49.

As to `Cc1cc(-c2ccc3c(c2)[nH]c(=O)n3C2CCNCC2)cn2ncnc12` [1 EB, 5-(8-methyl-[1,2,4]triazolo[1,5-a]pyridin-6-yl)-1-(piperidin-4-yl)-1,3-dihydro-2H-benzo[d]imidazol-2-one], the negative-log IC50 (pIC50) is 5.94.

`COc1cc(-c2cc3[nH]c(=O)n(C4CCC(N5CC(F)(F)C5)CC4)c3cc2C(C)C)cn2ncnc12` (single isomer, unassigned) [Example 297] showed a pIC50 of 7.43.

On to `CCc1cc2c(cc1-c1cc(OC)c3ncnn3c1)[nH]c(=O)n2[C@@H]1CCCNC1` [119 FB, (R)-6-ethyl-5-(8-methoxy-[1,2,4]triazolo[1,5-a]pyridin-6-yl)-1-(piperidin-3-yl)-1,3-dihydro-2H-benzo[d]imidazol-2-one], for which the negative logarithm of the IC50 (pIC50) is 8.26.

Turning to `COc1c(C)c(-c2cc3[nH]c(=O)n(C4CCC(N5CCC6(CC5)COC6)CC4)c3cc2C(C)C)cn2ncnc12` (single isomer, unassigned) [Example 267, 1-(4-(2-oxa-7-azaspiro[3.5]nonan-7-yl)cyclohexyl)-6-isopropyl-5-(8-methoxy-7-methyl-[1,2,4]triazolo[1,5-a]pyridin-6-yl)-1,3-dihydro-2H-benzo[d]imidazol-2-one], the pIC50 was 8.68.

`Cc1cc2c(cc1-c1cc(C)c3ncnn3c1)[nH]c(=O)n2[C@@H]1CCCNC1` [1 ED, (R)-6-methyl-5-(8-methyl-[1,2,4]triazolo[1,5-a]pyridin-6-yl)-1-(piperidin-3-yl)-1,3-dihydro-2H-benzo[d]imidazol-2-one] had a pIC50 of 7.74.
